In patent US20240327374A1, “LENALIDOMIDE PROCESS” (priority 2023, published 2024):

Tests used:
Assay type in all cases: physicochemical
[1] = Six months stability of crystalline Form SRA: moisture content by KF method
Description: (§1) Inventors of the present application performed six months stability for the novel crystalline Form SRA according to the following temperature and relative humidity conditions: […]

[2] = Six months stability of crystalline Form SRA: assay / purity by HPLC
Description: as §1

[3] = Six months stability of crystalline Form SRA: comparative XRPD pattern (polymorphic stability); details: after 6 months under 25° C.±2/65±5% RH and 40° C.±2/75±5% RH
Description: as §1

Moisture Content (by KF method) Not more than 0.5% w/w ([1]; A = 25° C.±2/65±5% RH, 1M): 0.22 % w/w
Moisture Content (by KF method) Not more than 0.5% w/w ([1]; A = 25° C.±2/65±5% RH, 2M): 0.22 % w/w
Moisture Content (by KF method) Not more than 0.5% w/w ([1]; A = 25° C.±2/65±5% RH, 3M): 0.23 % w/w
Moisture Content (by KF method) Not more than 0.5% w/w ([1]; A = 25° C.±2/65±5% RH, 6M): 0.23 % w/w
Moisture Content (by KF method) Not more than 0.5% w/w ([1]; A = 25° C.±2/65±5% RH, Initial): 0.23 % w/w
Moisture Content (by KF method) Not more than 0.5% w/w ([1]; B = 40° C.±2/75±5% RH, 1M): 0.21 % w/w
Moisture Content (by KF method) Not more than 0.5% w/w ([1]; B = 40° C.±2/75±5% RH, 2M): 0.22 % w/w
Moisture Content (by KF method) Not more than 0.5% w/w ([1]; B = 40° C.±2/75±5% RH, 3M): 0.22 % w/w
Moisture Content (by KF method) Not more than 0.5% w/w ([1]; B = 40° C.±2/75±5% RH, 6M): 0.22 % w/w
Moisture Content (by KF method) Not more than 0.5% w/w ([1]; B = 40° C.±2/75±5% RH, Initial): 0.23 % w/w
Assay (by HPLC; on anhydrous basis) Between 98.0 to 102.0% w/w ([2]; A = 25° C.±2/65±5% RH, 1M): 99.50 % w/w
Assay (by HPLC; on anhydrous basis) Between 98.0 to 102.0% w/w ([2]; A = 25° C.±2/65±5% RH, 2M): 99.41 % w/w
Assay (by HPLC; on anhydrous basis) Between 98.0 to 102.0% w/w ([2]; A = 25° C.±2/65±5% RH, 3M): 99.55 % w/w
Assay (by HPLC; on anhydrous basis) Between 98.0 to 102.0% w/w ([2]; A = 25° C.±2/65±5% RH, 6M): 99.47 % w/w
Assay (by HPLC; on anhydrous basis) Between 98.0 to 102.0% w/w ([2]; A = 25° C.±2/65±5% RH, Initial): 100.38 % w/w
Assay (by HPLC; on anhydrous basis) Between 98.0 to 102.0% w/w ([2]; B = 40° C.±2/75±5% RH, 1M): 99.77 % w/w
Assay (by HPLC; on anhydrous basis) Between 98.0 to 102.0% w/w ([2]; B = 40° C.±2/75±5% RH, 2M): 99.64 % w/w
Assay (by HPLC; on anhydrous basis) Between 98.0 to 102.0% w/w ([2]; B = 40° C.±2/75±5% RH, 3M): 100.02 % w/w
Assay (by HPLC; on anhydrous basis) Between 98.0 to 102.0% w/w ([2]; B = 40° C.±2/75±5% RH, 6M): 99.47 % w/w
Assay (by HPLC; on anhydrous basis) Between 98.0 to 102.0% w/w ([2]; B = 40° C.±2/75±5% RH, Initial): 100.38 % w/w
HPLC purity retained in the stability study ([2]; six months stability study): exceeding 99.9 % w/w by HPLC
Crystalline form by comparative XRPD, initial stage vs after stability [3]: crystalline form remains unchanged
Compound: Nc1cccc2c1CN(C1CCC(=O)NC1=O)C2=O (stereo not shown) [Form SRA, 3-(7-amino-3-oxo-1H-isoindol-2-yl) piperidine-2,6-dione]
